Source: patent US20110117017A1, “PEPTIDES WITH PROPERTIES OF AN […] FOR THE ALPHA 1A […] RECEPTOR AND USES THEREOF” (priority 2006, published 2011)

Key:
alpha1a receptor = biological target: T1, alpha1a receptor (Homo sapiens, UniProt P35348); assay: displacement of 3H-prazosin binding to the alpha1a receptor (yeast membranes)
T1 construct: made in house; host or cells: Pichia pastoris (membranes)
T1 sequence (P35348 1-466): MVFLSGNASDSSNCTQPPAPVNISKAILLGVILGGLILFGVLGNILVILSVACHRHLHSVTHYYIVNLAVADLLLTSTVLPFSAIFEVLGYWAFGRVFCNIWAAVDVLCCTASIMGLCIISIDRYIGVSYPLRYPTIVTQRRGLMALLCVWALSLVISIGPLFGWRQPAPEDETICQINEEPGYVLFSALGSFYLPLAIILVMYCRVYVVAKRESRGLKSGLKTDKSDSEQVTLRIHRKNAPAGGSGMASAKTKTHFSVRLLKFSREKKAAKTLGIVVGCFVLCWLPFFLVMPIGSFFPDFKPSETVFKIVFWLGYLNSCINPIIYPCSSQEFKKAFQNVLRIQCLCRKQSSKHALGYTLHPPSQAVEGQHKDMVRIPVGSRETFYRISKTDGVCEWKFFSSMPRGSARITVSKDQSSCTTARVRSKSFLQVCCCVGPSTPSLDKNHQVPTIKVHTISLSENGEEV

alpha1b receptor = biological target: T2, alpha1b receptor (Homo sapiens, UniProt P35368); assay: displacement of 3H-prazosin binding to the alpha1b receptor (yeast membranes)
T2 construct: made in house; host or cells: Pichia pastoris (membranes)
T2 sequence (P35368 1-520): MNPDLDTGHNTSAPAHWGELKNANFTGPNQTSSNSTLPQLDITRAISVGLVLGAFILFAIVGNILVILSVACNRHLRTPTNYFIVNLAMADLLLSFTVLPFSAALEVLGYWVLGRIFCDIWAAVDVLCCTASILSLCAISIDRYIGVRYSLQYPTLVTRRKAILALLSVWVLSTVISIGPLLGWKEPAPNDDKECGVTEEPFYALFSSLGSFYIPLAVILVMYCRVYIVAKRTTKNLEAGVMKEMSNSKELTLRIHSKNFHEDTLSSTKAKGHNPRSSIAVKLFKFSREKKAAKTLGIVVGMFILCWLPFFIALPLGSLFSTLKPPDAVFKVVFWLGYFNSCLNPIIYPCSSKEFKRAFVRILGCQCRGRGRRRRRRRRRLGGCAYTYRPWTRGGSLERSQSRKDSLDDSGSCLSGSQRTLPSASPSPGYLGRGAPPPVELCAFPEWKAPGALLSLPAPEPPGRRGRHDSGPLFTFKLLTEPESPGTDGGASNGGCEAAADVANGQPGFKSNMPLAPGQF

alpha1d receptor = biological target: T3, alpha1d receptor (Homo sapiens, UniProt P25100); assay: displacement of 3H-prazosin binding to the alpha1d receptor (yeast membranes)
T3 construct: made in house; host or cells: Pichia pastoris (membranes)
T3 sequence (P25100 1-572): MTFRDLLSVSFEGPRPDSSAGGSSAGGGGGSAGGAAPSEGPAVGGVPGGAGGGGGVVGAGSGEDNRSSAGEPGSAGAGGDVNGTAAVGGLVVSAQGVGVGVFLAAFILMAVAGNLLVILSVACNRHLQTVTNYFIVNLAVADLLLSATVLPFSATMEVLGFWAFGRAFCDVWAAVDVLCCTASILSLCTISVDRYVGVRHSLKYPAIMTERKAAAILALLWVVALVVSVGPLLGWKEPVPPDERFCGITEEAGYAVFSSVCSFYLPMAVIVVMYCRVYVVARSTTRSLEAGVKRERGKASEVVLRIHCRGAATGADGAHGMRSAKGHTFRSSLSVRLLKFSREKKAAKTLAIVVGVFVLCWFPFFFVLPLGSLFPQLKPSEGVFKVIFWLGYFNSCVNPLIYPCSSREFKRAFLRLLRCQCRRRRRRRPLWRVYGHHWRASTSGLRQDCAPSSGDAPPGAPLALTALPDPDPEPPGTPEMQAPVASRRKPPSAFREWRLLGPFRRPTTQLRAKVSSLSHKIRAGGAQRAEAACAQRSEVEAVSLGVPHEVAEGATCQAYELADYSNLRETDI

α2a adrenergic receptor = biological target: T4, α2a adrenergic receptor (Homo sapiens, UniProt P08913); assay: displacement of 3H-rauwolscine binding to the alpha2a subtype (yeast membranes)
T4 construct: made in house; host or cells: Pichia pastoris (membranes)
T4 sequence (P08913 1-465): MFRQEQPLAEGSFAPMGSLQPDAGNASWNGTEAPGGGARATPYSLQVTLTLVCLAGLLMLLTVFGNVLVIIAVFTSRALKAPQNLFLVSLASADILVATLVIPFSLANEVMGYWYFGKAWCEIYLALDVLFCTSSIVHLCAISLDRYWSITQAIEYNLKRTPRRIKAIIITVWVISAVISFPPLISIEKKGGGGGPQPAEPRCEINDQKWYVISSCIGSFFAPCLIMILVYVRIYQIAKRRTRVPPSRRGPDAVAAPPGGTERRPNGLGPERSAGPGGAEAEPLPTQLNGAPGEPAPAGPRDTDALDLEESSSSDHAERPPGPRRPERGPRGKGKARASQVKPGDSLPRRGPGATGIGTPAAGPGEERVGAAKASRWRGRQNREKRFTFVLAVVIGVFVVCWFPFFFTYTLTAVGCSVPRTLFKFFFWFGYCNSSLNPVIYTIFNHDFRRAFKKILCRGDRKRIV

beta1 receptor = biological target: T5, beta1 receptor (Homo sapiens, UniProt P08588); assay: displacement of 3H-CGP12177 binding to the beta1 receptor (yeast membranes)
T5 construct: made in house; host or cells: Pichia pastoris (membranes)

[1] = biological target: T6, alpha1a adrenergic receptor (Homo sapiens, UniProt P35348)
T6 sequence (P35348 1-466): T1 sequence (P35348 1-466)

[2] = biological target: T6, alpha1a adrenergic receptor; assay: hot saturation of 125I-AdTx1 on yeast membranes expressing the alpha1a adrenergic receptor
Procedure: The analysis of the saturation of the alpha1a adrenergic receptor with AdTx1 is carried out by incubating increasing concentrations of the iodinated peptide in the presence of 20 μg of membranes containing the alpha1a adrenergic receptor, for 20 h, and then measuring the radioactivity as above.

T5 sequence (P08588 whole entry): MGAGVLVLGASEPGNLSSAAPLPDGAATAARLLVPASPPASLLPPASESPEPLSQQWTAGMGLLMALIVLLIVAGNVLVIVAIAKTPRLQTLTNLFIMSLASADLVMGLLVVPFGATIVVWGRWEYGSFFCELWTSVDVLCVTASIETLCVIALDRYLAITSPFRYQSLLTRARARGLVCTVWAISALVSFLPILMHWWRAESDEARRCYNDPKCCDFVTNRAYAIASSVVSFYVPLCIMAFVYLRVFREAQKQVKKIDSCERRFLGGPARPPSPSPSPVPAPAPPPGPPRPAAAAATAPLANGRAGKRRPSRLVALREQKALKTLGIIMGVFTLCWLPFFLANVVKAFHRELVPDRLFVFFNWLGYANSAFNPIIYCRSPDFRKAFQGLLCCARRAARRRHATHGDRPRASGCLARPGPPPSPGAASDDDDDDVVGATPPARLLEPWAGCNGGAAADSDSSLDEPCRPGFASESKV

CC[C@H](C)[C@@H]1NC(=O)CNC(=O)[C@H](Cc2ccccc2)NC(=O)[C@H]([C@@H](C)CC)NC(=O)[C@H](CO)NC(=O)[C@H](CCCCN)NC(=O)[C@H](CO)NC(=O)[C@H]([C@@H](C)O)NC(=O)[C@H](C(C)C)NC(=O)[C@@H](NC(=O)[C@@H](NC(=O)[C@@H](N)CC(C)C)[C@@H](C)O)CSSC[C@@H]2NC(=O)[C@H](CC(C)C)NC(=O)[C@H](CC(N)=O)NC(=O)[C@H](CCC(N)=O)NC(=O)CNC(=O)[C@H](CC(=O)O)NC(=O)[C@@H]3CCCN3C(=O)[C@H](CSSC[C@@H](C(=O)N[C@@H](C)C(=O)N[C@@H](C)C(=O)N[C@H](C(=O)N[C@H]3CSSC[C@@H](C(=O)N[C@H]4CSSC[C@@H](C(=O)N[C@@H](CC(N)=O)C(=O)N[C@@H](CCC(=O)O)C(=O)O)NC(=O)[C@H](CCCCN)NC(=O)[C@H](CC(=O)O)NC(=O)[C@H]([C@@H](C)O)NC(=O)[C@H](CCCCN)NC4=O)NC(=O)[C@H](Cc4c[nH]cn4)NC(=O)[C@H]([C@@H](C)CC)NC(=O)[C@H](CO)NC(=O)[C@H](CC(=O)O)NC(=O)[C@H](Cc4ccc(O)cc4)NC(=O)[C@H](CC(N)=O)NC(=O)[C@H](CCC(=O)O)NC(=O)[C@@H]4CCCN4C(=O)[C@H]([C@@H](C)CC)NC(=O)[C@@H]4CCCN4C3=O)[C@@H](C)O)NC(=O)CNC(=O)[C@H](CCCNC(=N)N)NC(=O)[C@H]([C@@H](C)O)NC(=O)[C@H](CO)NC(=O)[C@H](CC(=O)O)NC(=O)[C@H](Cc3ccc(O)cc3)NC(=O)[C@H]([C@@H](C)CC)NC(=O)[C@H](CCCCN)NC(=O)[C@@H]3CCCN3C(=O)[C@H](C(C)C)NC(=O)[C@H](C(C)C)NC(=O)[C@H](Cc3ccc(O)cc3)NC(=O)[C@H](Cc3c[nH]cn3)NC(=O)[C@H](CCCNC(=N)N)NC(=O)[C@H](CCCNC(=N)N)NC(=O)[C@H](CCCCN)NC(=O)[C@H](Cc3ccccc3)NC2=O)NC(=O)[C@H](CC(=O)O)NC(=O)[C@H](CCC(=O)O)NC(=O)[C@H]([C@@H](C)O)NC(=O)[C@H]([C@@H](C)O)NC1=O [AdTx1]
IC50 (alpha1a receptor): 1.8 nM
IC50 (alpha1b receptor): 2300 nM
IC50 (alpha1d receptor): 9900 nM
IC50 (α2a adrenergic receptor): > 50000 nM
IC50 (beta1 receptor): > 50000 nM
IC50 [1]: 0.5 nM
Kd [2]: 0.8 ± 0.2 nM
